Results as given in patent publication US20040146498A1, “Pharmaceutical combinations” (priority 2001, published 2004).

System: femoral artery thrombosis
Assay: Canine femoral artery thrombosis model
Format: in vivo
Settings: Compound A administered in combination with aspirin (pre-treatment) versus either agent alone; dog; FIG. 1; not statistically significant
From the text: Canine Femoral Artery Thrombosis Model—Compound A and Aspirin Compound A as defined above was used in combination with aspirin in a dog model of femoral artery thrombosis to determine whether combination of a P2T-receptor antagonist and pre-treatment with aspirin would have an improved profile when compared to the effect of either agent used alone.

SMILES: CCCSc1nc(N[C@@H]2C[C@H]2c2ccc(F)c(F)c2)c2nnn([C@@H]3C[C@H](OCCO)[C@@H](O)[C@H]3O)c2n1 [Compound A]
- anti-thrombotic potency (dose (ID50) required to produce 50% inhibition of thrombosis): trend for an increased anti-thrombotic potency
